{"source": "patent US7279324B2", "about": "“Nucleic acid encoding G-protein coupled receptor with modified DRY motif” (Duke University, priority 2001, dated 2007)", "key": {"mock": {"test_system": "mock", "test": "Whole cell cAMP accumulation in HEK-293 cells", "assay_type": "cell-based", "details": "2.5 μM AVP for 15 min., mean±SD, n=3"}, "AT1AR R126H-GFP": {"target": "T1, AT1AR R126H-GFP (Rattus norvegicus, UniProt P25095, L81C/R126H/S109T)", "T1 construct": "expressed in transfected cells; host or cells: HEK-293", "T1 sequence (P25095 1-359 L81C/S109T/R126H)": "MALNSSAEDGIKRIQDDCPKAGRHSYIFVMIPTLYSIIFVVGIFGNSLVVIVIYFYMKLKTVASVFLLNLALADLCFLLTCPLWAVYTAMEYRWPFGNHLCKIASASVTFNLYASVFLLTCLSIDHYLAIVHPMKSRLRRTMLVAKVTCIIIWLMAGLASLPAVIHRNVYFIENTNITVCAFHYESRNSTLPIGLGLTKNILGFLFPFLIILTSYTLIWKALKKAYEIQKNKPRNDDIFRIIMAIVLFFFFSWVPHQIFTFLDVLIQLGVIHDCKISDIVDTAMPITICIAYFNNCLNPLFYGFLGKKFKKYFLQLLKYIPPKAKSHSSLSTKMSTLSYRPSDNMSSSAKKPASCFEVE", "test": "Receptor-GFP localization by confocal microscopy in HEK-293 cells", "assay_type": "cell-based", "details": "cultured in 1 μM L158,809, no agonist", "procedure": "(§1) Cell Culture and Transfection—For V2R experiments: HEK-293 cells were grown in Eagle's minimal essential medium with Earle's salt (MEM) supplemented with 10% fetal bovine serum and a 1:100 dilution of penicillin/streptomycin (Sigma Chemicals, St. Louis, Mo.). Cells were transiently transfected with plasmid cDNA using a modified calcium phosphate co-precipitation method as described in Barak et al., 1997, Mol. Pharmacol., 51:177–84. For α1B-AR and AT1AR experiments: Cells were transiently transfected in 10 cm^2 dishes (Falcon) with 1 μg receptor or GRK plasmid cDNA in pCDNA3.1(−) using above modified calcium phosphate transfection coprecipitation method for inositol phosphate and binding assays. For confocal microscopy, cells were transiently transfected in collagen (Sigma) coated 35 mm^2 glass bottom confocal dishes (MatTek, Ashland, Mass.) with Lipofectamine®2000 and Opti-MEM media (Life Technologies) using a standard method (Ciccarone, V., et al., 1999, Focus 21.2, 54–55). Cells for confocal microscopy were transfected with 30 ng of βarrestin or receptor plasmid cDNA in pEGFP and 250 ng of dynamin(K44A), GRK, or receptor in pcDNA3.1/zeo.\n(§2) Confocal Microscopy—HEK-293 cells were plated on the day following transfection onto collagen (Sigma Chemical, St. Louis, Mo.) treated 35 mm^2 glass-bottomed culture dishes. […]"}, "wild type α1B-AR [1]": {"target": "T2, wild type α1B-AR (Mesocricetus auratus, UniProt P18841)", "T2 construct": "expressed in transfected cells; host or cells: HEK-293", "T2 sequence (P18841 1-515)": "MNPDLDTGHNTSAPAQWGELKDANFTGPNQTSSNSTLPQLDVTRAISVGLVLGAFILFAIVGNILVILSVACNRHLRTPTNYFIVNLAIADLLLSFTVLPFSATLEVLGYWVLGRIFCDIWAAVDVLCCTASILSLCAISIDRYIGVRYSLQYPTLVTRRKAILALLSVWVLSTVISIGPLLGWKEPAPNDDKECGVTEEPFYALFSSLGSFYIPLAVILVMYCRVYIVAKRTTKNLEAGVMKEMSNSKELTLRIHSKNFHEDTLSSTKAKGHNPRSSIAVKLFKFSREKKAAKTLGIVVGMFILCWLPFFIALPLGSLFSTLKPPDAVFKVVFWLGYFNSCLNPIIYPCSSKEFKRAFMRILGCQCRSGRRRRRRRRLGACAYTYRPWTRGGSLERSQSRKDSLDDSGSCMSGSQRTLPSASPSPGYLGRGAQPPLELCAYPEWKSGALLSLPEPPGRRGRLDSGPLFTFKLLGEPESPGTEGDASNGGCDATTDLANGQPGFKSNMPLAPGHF", "test": "[3H]prazosin whole cell binding, Scatchard analysis, HEK-293 cells", "design": "species or system golden hamster", "details": "[3H]prazosin Scatchard, read-out: KD for NE", "quoted_text": "(§4) For α1B-AR and AT1AR experiments: Transiently transfected HEK-293 cells in 10 cm^2 dishes were washed twice in cold binding buffer (MEM+2% bovine serum albumin [BSA]), incubated for 1 hour at room temperature in binding buffer with varying concentrations of [^3H]prazosin (0.25 nM–8 nM), and washed three times in cold binding buffer to remove unbound ligand. Cell bound [^3H]prazosin was measured using a scintillation counter. Nonspecific binding was determined in the presence of 1000-fold molar excess of phentolamine (10 μM). For binding assays done to measure the effect of the co-expression of dynamin(K44A) or the addition of phentolamine in FIG. 14, a fixed concentration of 8 nM [^3H]prazosin was used."}, "α1B-AR R143A": {"target": "T3, α1B-AR R143A (Mesocricetus auratus, UniProt P18841, R143A)", "T3 construct": "expressed in transfected cells; host or cells: HEK-293", "T3 sequence (P18841 1-515 R143A)": "T2 sequence (P18841 1-515) with R143A", "test": "[3H]prazosin whole cell binding, Scatchard analysis, HEK-293 cells", "design": "species or system golden hamster", "details": "[3H]prazosin Scatchard, similar to wild type, read-out: KD for NE", "quoted_text": "as §4"}, "α1B-AR R143 mutants [2]": {"test_system": "α1B-AR R143 mutants", "test": "[3H]inositol phosphate accumulation in HEK-293 cells", "assay_type": "cell-based, golden hamster", "details": "10 μM NE; R143 substituted with Ala, Glu, His or Asn", "quoted_text": "(§5) Inositol Phosphate Determination—Transiently transfected HEK-293 cells in 10 cm^2 dishes were plated onto 12-well plates (Falcon) coated with 25 mg/ml poly-D-lysine (Sigma) and incubated overnight in MEM+10% FBS (fetal bovine serum) at 37° C. To assay for inositol phosphate production, cells were incubated overnight at 37° C. in labeling media (1 μCi/0.5 ml/well of [^3H]inositol in MEM+5% fetal bovine serum). Cells were washed with MEM, 20 mM HEPES, pH 7.4, 20 mM LiCl for 5 minutes at 37° C. and then treated with agonist."}, "wild type α1B-AR-GFP": {"target": "T4, wild type α1B-AR-GFP (Mesocricetus auratus, UniProt P18841)", "T4 construct": "expressed in transfected cells; host or cells: HEK-293", "T4 sequence (P18841 1-515)": "T2 sequence (P18841 1-515)", "test": "Receptor-GFP localization by confocal microscopy in HEK-293 cells", "assay_type": "cell-based, golden hamster", "procedure": "as §1\n(§3) Confocal Microscopy—HEK-293 cells were plated on the day following transfection onto collagen (Sigma Chemical, St. Louis, Mo.) treated 35 mm^2 glass-bottomed culture dishes. Confocal microscopy was performed with a Zeiss laser-scanning microscope (LSM-510). GFP images were collected using the 488 nm argon excitation and a 505 nm long pass filter. For α1B-AR and AT1AR experiments: HEK-293 cells were transiently transfected in 35 mm^2 confocal dishes. Cells were stimulated with 10 μM NE or 1 μM AngII and incubated at 37° C. for 30 minutes before viewing. Alternatively, cells were cultured overnight at 37° C. in 10 μM phentolamine or 1 μM L158,809. Confocal microscopy was performed at 100× magnification with a Zeiss laser-scanning microscope (LSM-510). GFP and FITC images were collected using 488-nm excitation and a 505-nm long-pass filter."}, "wild type α1B-AR [3]": {"target": "T2, wild type α1B-AR", "test": "βarrestin-GFP translocation in HEK-293 cells", "assay_type": "cell-based, golden hamster", "details": "10 μM NE", "procedure": "as §1, §2"}, "α1B-AR R143 mutants [4]": {"test_system": "α1B-AR R143 mutants", "test": "βarrestin-GFP translocation in HEK-293 cells", "assay_type": "cell-based, golden hamster", "details": "10 μM NE (data not shown)", "procedure": "as §1, §2"}, "wild type α1B-AR [5]": {"target": "T2, wild type α1B-AR", "test": "[3H]inositol phosphate accumulation in HEK-293 cells", "assay_type": "cell-based, golden hamster", "details": "10 μM NE, 30 min., vs absence of agonist", "quoted_text": "as §5"}, "α1B-AR R143E-GFP [6]": {"target": "T5, α1B-AR R143E-GFP (Mesocricetus auratus, UniProt P18841, R143E)", "T5 construct": "expressed in transfected cells; host or cells: HEK-293", "T5 sequence (P18841 1-515 R143E)": "T2 sequence (P18841 1-515) with R143E", "test": "Receptor-GFP localization by confocal microscopy in HEK-293 cells", "assay_type": "cell-based, golden hamster", "details": "cultured in 10 μM phentolamine at 37° C. overnight, no agonist", "procedure": "as §1, §3"}, "α1B-AR R143E-GFP [7]": {"target": "T5, α1B-AR R143E-GFP", "test": "Plasma membrane receptor expression by whole cell [3H]prazosin binding", "assay_type": "cell-based, golden hamster", "details": "cultured in 10 μM phentolamine at 37° C. overnight; 8 nM [3H]prazosin", "quoted_text": "as §4"}, "AT1AR R126H [8]": {"target": "T6, AT1AR R126H (Rattus norvegicus, UniProt P25095, L81C/R126H/S109T)", "T6 construct": "expressed in transfected cells; host or cells: HEK-293", "T6 sequence (P25095 1-359 L81C/S109T/R126H)": "T1 sequence (P25095 1-359 L81C/S109T/R126H)", "test": "[3H]inositol phosphate accumulation in HEK-293 cells", "assay_type": "cell-based", "details": "stimulated with AngII (1 μM, 1 μg elsewhere in the source)", "procedure": "Inositol Phosphate Determination—Transiently transfected HEK-293 cells in 10 cm^2 dishes were plated onto 12-well plates (Falcon) coated with […] poly-D-lysine (Sigma) and incubated overnight in MEM+10% FBS (fetal bovine serum) at 37° C. To assay for inositol phosphate production, cells were incubated overnight at 37° C. in labeling media (1 μCi/0.5 ml/well of [^3H]inositol in MEM+5% fetal bovine serum). Cells were washed with MEM, 20 mM HEPES, pH 7.4, 20 mM LiCl for 5 minutes at 37° C. and then treated with agonist. Total inositol phosphate was extracted and separated as previously described in Cotecchia, S., et al., 1992, J. Biol. Chem. 267: 1633–1639."}, "AT1AR R126H [9]": {"target": "T6, AT1AR R126H", "test": "βarrestin-GFP translocation in HEK-293 cells", "assay_type": "cell-based", "details": "1 μM AngII", "procedure": "as §1, §2"}, "wild type AT1AR": {"target": "T7, wild type AT1AR (Rattus norvegicus, UniProt P25095)", "T7 construct": "expressed in transfected cells; host or cells: HEK-293", "T7 sequence (P25095 1-359)": "T1 sequence (P25095 1-359 L81C/S109T/R126H) with C81L, T109S, H126R", "test": "βarrestin-GFP translocation in HEK-293 cells", "assay_type": "cell-based", "details": "1 μM AngII", "procedure": "as §1, §2"}, "wild type AT1AR-GFP": {"target": "T8, wild type AT1AR-GFP (Rattus norvegicus, UniProt P25095)", "T8 construct": "expressed in transfected cells; host or cells: HEK-293", "T8 sequence (P25095 1-359)": "T1 sequence (P25095 1-359 L81C/S109T/R126H) with C81L, T109S, H126R", "test": "Receptor-GFP localization by confocal microscopy in HEK-293 cells", "assay_type": "cell-based", "details": "1 μM AngII", "procedure": "as §1, §2"}}, "note": "Positions count from the first letter of the chain named. “Also recorded” adds a separate entry of the source."}
{"compound": "NC(=O)CC[C@@H]1NC(=O)[C@H](Cc2ccccc2)NC(=O)[C@H](Cc2ccc(O)cc2)NC(=O)[C@@H](N)CSSC[C@@H](C(=O)N2CCC[C@H]2C(=O)N[C@@H](CCCN=C(N)N)C(=O)NCC(N)=O)NC(=O)[C@H](CC(N)=O)NC1=O", "note": "[AVP, Arginine vasopressin]", "values": [{"measurement": "stimulated cAMP response", "setting": "mock", "value": "0.017±0.006 (counts of [^3H]cAMP per min. per well)/(counts of [^3H]adenine uptake per minute per well)"}]}
{"compound": "CCc1nc2c(C)cc(C)nc2n1Cc1ccc(-c2ccccc2-c2nnn[nH]2)cc1", "note": "[L158,809, 2-ethyl-5,7-dimethyl-3-[[2′-(1H-tetrazol-5-yl)[1,1′-biphenyl]-4-yl]methyl]-3H-Imidazo[4,5-b]pyridine]", "values": [{"measurement": "distribution of receptor-GFP", "setting": "AT1AR R126H-GFP", "value": "reversal of the receptor localization back to the plasma membrane; also recorded: redistribution of the receptor back to the plasma membrane"}]}
{"compound": "NC[C@H](O)c1ccc(O)c(O)c1", "note": "[NE, Norepinephrine]", "values": [{"measurement": "Kd", "setting": "wild type α1B-AR [1]", "value": "1.5 to 3.5", "unit": "nM"}, {"measurement": "Kd", "setting": "α1B-AR R143A", "value": "1.5 to 3.5", "unit": "nM"}, {"measurement": "agonist-induced IP response", "setting": "α1B-AR R143 mutants [2]", "value": "significantly impaired ability to mediate an agonist-induced IP response"}, {"measurement": "distribution of receptor-GFP", "setting": "wild type α1B-AR-GFP; 10 μM NE, 30 minutes at 37° C.", "value": "loss of plasma membrane expression and the redistribution of the receptor to endocytic vesicles"}, {"measurement": "distribution of βarrestin-GFP", "setting": "wild type α1B-AR [3]", "value": "rapid translocation of βarrestin-GFP to the plasma membrane"}, {"measurement": "distribution of βarrestin-GFP", "setting": "α1B-AR R143 mutants [4]", "value": "enhances this translocation"}, {"measurement": "increase of [3H]-IP accumulation", "setting": "wild type α1B-AR [5]", "value": 6, "unit": "fold"}]}
{"compound": "Cc1ccc(N(CC2=NCCN2)c2cccc(O)c2)cc1", "note": "[phentolamine]", "values": [{"measurement": "distribution of receptor-GFP", "setting": "wild type α1B-AR-GFP; cultured in 10 μM phentolamine at 37° C. overnight", "value": "no alteration in the expression of the receptor at the plasma membrane; also recorded: no effect on the distribution of the wild type α1B-AR-GFP"}, {"measurement": "distribution of receptor-GFP", "setting": "α1B-AR R143E-GFP [6]", "value": "complete reversal; also recorded: redistribution of the α1B-AR R143E-GFP from endosomes to the plasma membrane"}, {"measurement": "plasma membrane receptor expression (whole cell [3H]prazosin binding)", "setting": "α1B-AR R143E-GFP [7]", "value": "increases to the level of the wild type receptor"}]}
{"compound": "angiotensin II [AngII]", "values": [{"measurement": "[3H]-IP accumulation / signaling compared to stimulated wild type AT1AR", "setting": "AT1AR R126H [8]", "value": "slight impairment of signaling; also recorded: levels identical to HEK cells transfected with wild type AT1AR"}, {"measurement": "distribution of βarrestin-GFP", "setting": "AT1AR R126H [9]", "value": "enhanced distribution of βarrestin-GFP into endocytic vesicles"}, {"measurement": "distribution of βarrestin-GFP", "setting": "wild type AT1AR", "value": "redistribution of the βarrestin-GFP into endocytic vesicles"}, {"measurement": "distribution of receptor-GFP", "setting": "wild type AT1AR-GFP", "value": "internalization of the receptor into endocytic vesicles"}]}
